Molecules are shown by their SMILES.

For assay [1], the target named is Gamma-aminobutyric acid receptor subunit alpha-1 (Rattus norvegicus, UniProt P62813).
The target of assay [2] is T1, Adenosine receptor A3 (Homo sapiens, UniProt P0DMS8).
T1 sequence (P0DMS8 whole entry): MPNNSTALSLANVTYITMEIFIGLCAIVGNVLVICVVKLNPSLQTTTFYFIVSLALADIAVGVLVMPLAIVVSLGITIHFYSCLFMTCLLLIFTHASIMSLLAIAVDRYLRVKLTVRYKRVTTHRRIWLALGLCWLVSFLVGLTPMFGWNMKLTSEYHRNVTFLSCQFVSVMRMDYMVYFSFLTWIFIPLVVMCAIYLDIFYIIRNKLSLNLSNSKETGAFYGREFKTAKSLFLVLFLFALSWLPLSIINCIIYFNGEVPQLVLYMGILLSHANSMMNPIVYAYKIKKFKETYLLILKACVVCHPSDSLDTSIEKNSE

For assay [3], the target named is T2, Alpha-2A adrenergic receptor (Homo sapiens, UniProt P08913).
T2 sequence (P08913 whole entry): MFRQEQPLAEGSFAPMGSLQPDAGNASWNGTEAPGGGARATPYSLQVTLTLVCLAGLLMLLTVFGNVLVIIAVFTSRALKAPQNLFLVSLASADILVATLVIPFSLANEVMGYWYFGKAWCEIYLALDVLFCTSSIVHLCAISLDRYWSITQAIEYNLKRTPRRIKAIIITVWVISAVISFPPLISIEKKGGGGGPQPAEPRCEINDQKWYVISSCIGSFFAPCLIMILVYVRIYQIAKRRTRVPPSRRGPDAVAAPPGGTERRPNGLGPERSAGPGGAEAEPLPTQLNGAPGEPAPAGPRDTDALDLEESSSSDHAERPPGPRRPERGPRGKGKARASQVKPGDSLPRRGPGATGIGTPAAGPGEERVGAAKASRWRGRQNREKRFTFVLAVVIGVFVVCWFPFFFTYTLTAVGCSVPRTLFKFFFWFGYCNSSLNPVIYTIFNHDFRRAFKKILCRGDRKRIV
Type of assay: functional, cell-based.

Assay [4] concerns the target Vasopressin V2 receptor (Homo sapiens, UniProt P30518).
The target of assay [5] is D(1A) dopamine receptor (Homo sapiens, UniProt P21728). Type of assay: functional, cell-based.
Sequence of D(1A) dopamine receptor (P21728 whole entry): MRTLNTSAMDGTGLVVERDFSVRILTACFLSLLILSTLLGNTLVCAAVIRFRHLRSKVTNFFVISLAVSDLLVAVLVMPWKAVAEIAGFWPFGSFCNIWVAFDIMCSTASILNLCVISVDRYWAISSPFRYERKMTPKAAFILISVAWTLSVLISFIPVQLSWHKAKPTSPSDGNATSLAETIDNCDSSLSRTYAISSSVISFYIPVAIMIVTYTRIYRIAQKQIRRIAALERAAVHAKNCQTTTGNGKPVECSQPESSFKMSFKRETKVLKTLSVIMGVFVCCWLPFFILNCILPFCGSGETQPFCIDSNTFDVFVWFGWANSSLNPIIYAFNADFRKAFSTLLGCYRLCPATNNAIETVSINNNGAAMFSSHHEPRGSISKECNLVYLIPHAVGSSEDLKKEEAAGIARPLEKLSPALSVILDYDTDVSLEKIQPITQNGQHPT
Assay [6] addresses Histamine H2 receptor (Homo sapiens, UniProt P25021). Type of assay: functional, cell-based.
Assay [7] deals with Delta-type opioid receptor (Homo sapiens, UniProt P41143).
Sequence of Delta-type opioid receptor (P41143 whole entry): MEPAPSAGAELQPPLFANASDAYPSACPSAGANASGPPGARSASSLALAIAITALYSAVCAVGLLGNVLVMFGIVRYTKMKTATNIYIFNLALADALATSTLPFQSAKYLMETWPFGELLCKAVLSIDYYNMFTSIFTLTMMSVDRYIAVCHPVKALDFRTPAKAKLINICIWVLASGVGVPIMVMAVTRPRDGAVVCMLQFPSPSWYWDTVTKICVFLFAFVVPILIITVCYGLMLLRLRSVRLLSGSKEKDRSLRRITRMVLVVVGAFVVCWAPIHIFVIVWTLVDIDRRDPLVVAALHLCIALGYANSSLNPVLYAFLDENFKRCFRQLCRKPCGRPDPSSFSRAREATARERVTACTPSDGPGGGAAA
Assay [8] concerns the target Sodium-dependent noradrenaline transporter (Homo sapiens, UniProt P23975).
The target of assay [9] is 5-hydroxytryptamine receptor 2A (Homo sapiens, UniProt P28223). Type of assay: functional, cell-based.
Sequence of 5-hydroxytryptamine receptor 2A (P28223 whole entry): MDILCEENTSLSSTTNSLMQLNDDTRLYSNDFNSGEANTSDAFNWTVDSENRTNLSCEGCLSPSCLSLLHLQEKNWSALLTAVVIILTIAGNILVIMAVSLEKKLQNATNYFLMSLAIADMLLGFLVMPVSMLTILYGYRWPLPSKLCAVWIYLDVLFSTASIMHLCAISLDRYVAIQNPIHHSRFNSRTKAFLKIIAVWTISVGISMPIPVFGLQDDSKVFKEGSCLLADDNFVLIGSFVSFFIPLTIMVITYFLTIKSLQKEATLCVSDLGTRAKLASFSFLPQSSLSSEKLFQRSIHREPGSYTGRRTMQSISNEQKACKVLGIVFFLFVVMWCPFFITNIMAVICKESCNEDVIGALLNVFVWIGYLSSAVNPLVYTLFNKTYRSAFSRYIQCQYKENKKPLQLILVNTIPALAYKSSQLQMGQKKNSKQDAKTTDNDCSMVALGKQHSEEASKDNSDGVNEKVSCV
Assay [10] deals with T3, Muscarinic acetylcholine receptor M1 (Homo sapiens, UniProt P11229).
T3 sequence (P11229 whole entry): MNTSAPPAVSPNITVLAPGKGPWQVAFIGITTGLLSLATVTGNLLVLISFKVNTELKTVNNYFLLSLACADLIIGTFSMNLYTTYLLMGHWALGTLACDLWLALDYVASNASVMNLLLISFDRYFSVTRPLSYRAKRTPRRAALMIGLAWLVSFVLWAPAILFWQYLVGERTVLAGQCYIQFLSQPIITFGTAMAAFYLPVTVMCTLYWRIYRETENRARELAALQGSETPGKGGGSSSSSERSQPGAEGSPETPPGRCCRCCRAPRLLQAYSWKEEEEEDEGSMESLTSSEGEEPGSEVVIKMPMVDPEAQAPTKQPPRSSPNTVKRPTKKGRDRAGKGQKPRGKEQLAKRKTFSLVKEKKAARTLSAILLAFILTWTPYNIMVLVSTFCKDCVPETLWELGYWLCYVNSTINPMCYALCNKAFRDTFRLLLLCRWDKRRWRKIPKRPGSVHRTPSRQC
Type of assay: functional, cell-based.

Assay [11] has as its target T3, Muscarinic acetylcholine receptor M1. Type of assay: functional, cell-based. The source holds these as a separate data set.
Also: assay procedure not described here.

Sequence of Sodium-dependent noradrenaline transporter (P23975 whole entry): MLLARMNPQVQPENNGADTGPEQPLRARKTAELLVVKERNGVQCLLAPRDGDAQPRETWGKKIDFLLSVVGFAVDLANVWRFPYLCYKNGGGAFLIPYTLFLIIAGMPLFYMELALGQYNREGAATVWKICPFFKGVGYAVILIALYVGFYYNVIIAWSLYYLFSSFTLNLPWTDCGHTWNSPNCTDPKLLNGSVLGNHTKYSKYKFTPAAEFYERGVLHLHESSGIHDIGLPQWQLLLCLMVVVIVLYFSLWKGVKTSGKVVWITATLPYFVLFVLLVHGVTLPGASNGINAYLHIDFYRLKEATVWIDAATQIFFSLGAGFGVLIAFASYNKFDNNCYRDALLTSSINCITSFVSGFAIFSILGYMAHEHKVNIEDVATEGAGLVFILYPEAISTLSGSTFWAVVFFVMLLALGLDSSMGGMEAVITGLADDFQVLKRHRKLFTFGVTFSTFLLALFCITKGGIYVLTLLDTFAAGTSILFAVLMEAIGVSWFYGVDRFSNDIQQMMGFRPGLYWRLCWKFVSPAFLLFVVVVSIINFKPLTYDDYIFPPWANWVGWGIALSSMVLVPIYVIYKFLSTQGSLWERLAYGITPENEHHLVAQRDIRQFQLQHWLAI
Sequence of Histamine H2 receptor (P25021 whole entry): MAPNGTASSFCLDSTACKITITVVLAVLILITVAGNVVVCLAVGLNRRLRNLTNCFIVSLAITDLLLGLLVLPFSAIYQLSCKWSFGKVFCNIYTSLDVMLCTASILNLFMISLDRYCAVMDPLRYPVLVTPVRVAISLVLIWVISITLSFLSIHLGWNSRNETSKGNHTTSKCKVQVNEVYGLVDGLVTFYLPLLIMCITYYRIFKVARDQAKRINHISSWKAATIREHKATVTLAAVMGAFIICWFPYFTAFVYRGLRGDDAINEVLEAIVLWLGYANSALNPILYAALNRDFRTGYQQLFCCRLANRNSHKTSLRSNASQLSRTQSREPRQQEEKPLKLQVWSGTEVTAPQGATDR
Sequence of Gamma-aminobutyric acid receptor subunit alpha-1 (P62813 whole entry): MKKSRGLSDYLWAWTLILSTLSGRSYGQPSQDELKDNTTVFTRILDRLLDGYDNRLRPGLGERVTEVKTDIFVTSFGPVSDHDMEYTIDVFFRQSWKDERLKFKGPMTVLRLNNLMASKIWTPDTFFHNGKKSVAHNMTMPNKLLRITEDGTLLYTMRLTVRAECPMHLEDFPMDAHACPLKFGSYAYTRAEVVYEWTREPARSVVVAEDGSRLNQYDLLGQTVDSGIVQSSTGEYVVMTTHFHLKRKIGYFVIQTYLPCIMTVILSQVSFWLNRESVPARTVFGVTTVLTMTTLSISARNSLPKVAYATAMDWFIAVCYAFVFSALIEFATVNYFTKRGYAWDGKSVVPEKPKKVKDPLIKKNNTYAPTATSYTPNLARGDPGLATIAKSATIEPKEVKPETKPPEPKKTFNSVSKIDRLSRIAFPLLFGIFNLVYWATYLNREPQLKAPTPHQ
Sequence of Vasopressin V2 receptor (P30518 whole entry): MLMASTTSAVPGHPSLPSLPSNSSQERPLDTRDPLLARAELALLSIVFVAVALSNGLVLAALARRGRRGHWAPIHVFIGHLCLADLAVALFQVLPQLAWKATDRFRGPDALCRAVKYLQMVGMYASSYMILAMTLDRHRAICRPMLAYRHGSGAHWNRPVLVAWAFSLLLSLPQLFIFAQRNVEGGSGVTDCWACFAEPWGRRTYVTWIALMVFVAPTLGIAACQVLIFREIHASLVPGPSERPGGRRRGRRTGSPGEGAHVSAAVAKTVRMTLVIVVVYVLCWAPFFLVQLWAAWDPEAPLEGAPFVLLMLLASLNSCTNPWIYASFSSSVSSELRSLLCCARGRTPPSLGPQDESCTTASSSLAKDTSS

The AC50 is the concentration giving half of the maximal activity seen. `CC(=O)OC1CN2CCC1CC2` (stereo not given) [ACECLIDINE] showed an AC50 in assay [1] of more than 30 µM.

With `CC1=C(/C=C/C(C)=C\C=C\C(C)=C\C(=O)O)C(C)(C)CCC1` [ALITRETINOIN], the concentration at half-maximal activity (AC50) in assay [2] and in [1] was more than 30 µM in each case.

Take `N=C(N)NC(=O)c1nc(Cl)c(N)nc1N` [AMILORIDE]: the AC50 in assay [3], in assay [4], in assay [5], in assay [1], in assay [6] and in [7] was more than 30 µM in each case. Further, the AC50 in assay [8] was more than 30 µM.

`CC(=O)Nc1ccc(/C=N/NC(N)=S)cc1` [AMITHIOZONE]: the concentration at half-maximal activity (AC50) in assay [1] was more than 30 µM.

For `COc1ccc(-c2cc(=S)ss2)cc1` [ANETHOLTRITHION], the AC50 in [3], in [4], in assay [5], in assay [6], in assay [9] and in [7] was more than 30 µM throughout. The same compound returned an AC50 in [8] of 7.3 µM.

Regarding `Cn1c(CCCC(=O)O)nc2cc(N(CCCl)CCCl)ccc21` [BENDAMUSTINE], the concentration at half-maximal activity (AC50) in [2], in [10], in [11] and in assay [1] was more than 30 µM in each case.

As for `O=C(OOC(=O)c1ccccc1)c1ccccc1` [BENZOYL PEROXIDE], the concentration at half-maximal activity (AC50) in assay [10], in [11] and in assay [1] was more than 30 µM in each case.

On to `C[C@]12CCC(=O)C=C1C=C[C@@H]1[C@@H]2CC[C@@]2(C)[C@H]1CC[C@@]21CCC(=O)O1` [CANRENONE], for which the AC50 in [3], in [4], in assay [5], in assay [6], in [9] and in assay [7] was more than 30 µM in each case. The same compound came in with an AC50 in [8] of more than 30 µM.

Take `CN(C)CCC(O)(c1ccccc1)c1ccccc1Cl` (stereo not given) [CHLOPHEDIANOL]: the AC50 in assay [3] is more than 10 µM; in assay [4] it was more than 10 µM; in assay [5], more than 10 µM; in [6], more than 10 µM; in assay [9], more than 10 µM; in assay [7], more than 30 µM. Also, the half-maximal activity concentration (AC50) in assay [8] was more than 10 µM.

Turning to `C[C@]12C=CC(=O)C=C1C(Cl)=C[C@@H]1[C@@H]2[C@@H](O)C[C@@]2(C)[C@H]1CC[C@]2(O)C(=O)CO` [CLOPREDNOL], the half-maximal activity concentration (AC50) in assay [3], in [4], in assay [5], in assay [6], in assay [9] and in [7] was more than 30 µM in each case. The compound also registered an AC50 in assay [8] of more than 30 µM.

On to `COc1cccc2c1C(=O)c1c(O)c3c(c(O)c1C2=O)C[C@@](O)(C(=O)CO)C[C@@H]3O[C@H]1C[C@H](N)[C@H](O)[C@H](C)O1` [DOXORUBICIN], for which the AC50 is more than 30 µM in [2]; 12 µM in assay [3]; more than 30 µM in assay [4]; more than 30 µM in assay [5]; more than 30 µM in [1]; more than 10 µM in assay [6]. The AC50 in [7] and in [8] was more than 30 µM in each case.

Take `C[C@]12CCC(=O)C=C1[C@@H]1C[C@@H]1[C@H]1[C@@H]3[C@@H]4C[C@@H]4[C@@]4(CCC(=O)O4)[C@@]3(C)CC[C@@H]12` [DROSPIRENONE]: the concentration at half-maximal activity (AC50) in assay [3], in assay [4], in assay [5], in assay [6], in assay [9] and in assay [7] was more than 30 µM each time. Further, in [8], the concentration at half-maximal activity (AC50) is more than 30 µM.

`COc1cccc2c1C(=O)c1c(O)c3c(c(O)c1C2=O)C[C@@](O)(C(=O)CO)C[C@@H]3O[C@H]1C[C@H](N)[C@@H](O)[C@H](C)O1` [EPIRUBICIN]: the AC50 in [2] and in assay [1] was more than 30 µM in each case.

Regarding `CC(C)(Oc1ccc(Cl)cc1)C(=O)OCCOC(=O)c1cccnc1` [ETOFIBRATE], the half-maximal activity concentration (AC50) in assay [3], in assay [4], in assay [5], in assay [6], in assay [9] and in assay [7] was more than 30 µM each time. For the same compound, the half-maximal activity concentration (AC50) in [8] was more than 30 µM.

For the compound `CC(C)Cc1ccc(C(C)C(=O)OCc2ccccn2)cc1` (stereo not given) [IBUPROFEN PICONOL], the half-maximal activity concentration (AC50) is 15.8 µM in [2], more than 30 µM in [10], more than 10 µM in assay [11] and more than 30 µM in [1].

On to `CC1=C(/C=C/C(C)=C/C=C/C(C)=C\C(=O)O)C(C)(C)CCC1` [ISOTRETINOIN], for which the half-maximal activity concentration (AC50) in assay [2] and in assay [1] was more than 30 µM in each case.

For `CC(C)NC[C@H](O)COc1ccc(CCOCC2CC2)cc1` [LEVOBETAXOLOL], the concentration at half-maximal activity (AC50) in [2], in assay [10], in assay [11] and in assay [1] was more than 30 µM in each case.

With `Cc1cccc(C)c1NC(=O)CN(CC(=O)O)CC(=O)O` [LIDOFENIN], the AC50 in [2], in [10], in assay [11] and in assay [1] was more than 30 µM each time.

Consider `CN1CCc2c(c3ccccc3n2Cc2ccccc2)C1` [MEBHYDROLIN], for which the concentration at half-maximal activity (AC50) was more than 30 µM in assay [2], more than 30 µM in assay [10], 1.96 µM in [11] and 25.4 µM in assay [1].

`CC(C)=CCC/C(C)=C/CC/C(C)=C/CC/C(C)=C/CC1=C(C)C(=O)c2ccccc2C1=O` [MENATETRENONE]: the half-maximal activity concentration (AC50) in assay [2] was 4.72 µM; in assay [10] it was more than 30 µM; in assay [11], more than 30 µM; in assay [1] it was more than 30 µM.

Compound `CSCC[C@H](N)C(=O)O` [METHIONINE] registered a concentration at half-maximal activity (AC50) in [1] of more than 30 µM.

Turning to `C[C@]12C=CC(=O)C=C1CC[C@@H]1[C@@H]2[C@@H](O)C[C@@]2(C)[C@H]1CC[C@]2(O)C(=O)CO` [PREDNISOLONE], the AC50 in assay [3] is more than 10 µM; in [4], more than 30 µM; in assay [5], more than 10 µM; in assay [6] it was more than 10 µM; in assay [7], more than 30 µM; in assay [8], more than 30 µM.

As to `CCC(=O)c1ccc2c(c1)N(CC(C)N(C)C)c1ccccc1S2` (stereo not given) [PROPIOMAZINE], the half-maximal activity concentration (AC50) is more than 10 µM in [3]; more than 10 µM in assay [4]; more than 10 µM in assay [5]; more than 10 µM in assay [6]; more than 10 µM in assay [9]; more than 30 µM in assay [7]. The same compound registered an AC50 in [8] of more than 10 µM.

As for `CN(C)[C@@H]1C(O)=C(C(=O)NCN2CCCC2)C(=O)[C@@]2(O)C(O)=C3C(=O)c4c(O)cccc4[C@@](C)(O)[C@H]3C[C@@H]12` [ROLITETRACYCLINE], the AC50 in [3] is more than 10 µM; in [4], more than 10 µM; in [5], more than 10 µM; in assay [6], more than 10 µM; in assay [9] it was more than 30 µM; in [7], more than 30 µM. The AC50 in assay [8] is more than 10 µM.

With `CC1(C)O[C@@H]2C[C@H]3[C@@H]4CCC5=CC(=O)C=C[C@]5(C)[C@@]4(F)[C@@H](O)C[C@]3(C)[C@]2(C(=O)CO)O1` [TRIAMCINOLONE ACETONIDE], the half-maximal activity concentration (AC50) in assay [3], in assay [4], in [5], in [6] and in assay [7] was more than 30 µM each time.

In the case of `Oc1cc(Cl)ccc1Oc1ccc(Cl)cc1Cl` [TRICLOSAN], the AC50 in [3], in assay [4], in assay [5], in assay [6], in assay [9] and in [7] was more than 30 µM in each case. Further, the half-maximal activity concentration (AC50) in assay [8] was found to be 0.7 µM.

These data come from ChEMBL document CHEMBL5291721, “A preclinical secondary pharmacology resource illuminates target-adverse drug reaction associations of marketed drugs” (Nat Commun, 2023).
